According to patent US20130023587A1, “COMPOSITIONS AND METHODS FOR THE TREATMENT OF CANCER” (DUKE UNIVERSITY, priority 2010, published 2013):
“Also recorded” adds a separate entry of the source.

What was measured:
R3230 cells [1] = assay: Clonogenic assay; assay type: cell-based, rat
Description: Cells were washed and returned to normal growth medium. 14 days later, colonies were stained with crystal violet and counted.

MCT-1 = molecular target: T1, MCT-1 (Rattus norvegicus, UniProt P53987); assay: 13C NMR of lactate uptake and catabolism to alanine and glutamate in R3230 cells; assay type: cell-based; details: 5 mM CHC
T1 construct: endogenous in cells; host or cells: R3230 rat mammary carcinoma cells
T1 sequence (P53987 1-494): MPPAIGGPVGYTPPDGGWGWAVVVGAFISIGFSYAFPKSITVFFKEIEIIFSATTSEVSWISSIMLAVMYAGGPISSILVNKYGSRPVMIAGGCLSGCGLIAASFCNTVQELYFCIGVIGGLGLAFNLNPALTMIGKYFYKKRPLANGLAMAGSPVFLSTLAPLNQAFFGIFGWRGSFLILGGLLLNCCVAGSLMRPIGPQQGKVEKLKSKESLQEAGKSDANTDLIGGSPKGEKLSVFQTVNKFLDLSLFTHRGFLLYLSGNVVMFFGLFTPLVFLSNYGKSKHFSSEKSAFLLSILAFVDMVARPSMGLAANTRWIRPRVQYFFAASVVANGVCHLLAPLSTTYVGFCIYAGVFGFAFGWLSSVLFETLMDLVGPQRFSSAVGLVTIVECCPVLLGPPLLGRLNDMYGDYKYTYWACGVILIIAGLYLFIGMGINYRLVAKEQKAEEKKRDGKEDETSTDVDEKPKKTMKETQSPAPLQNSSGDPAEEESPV
Experimental: ^1H-NMR and ^13C-NMR: R3230 cells were grown to 60% confluency. Cells were washed and exposed to DMEM with varying concentrations of ^13C-methyl labeled L-lactate solution (Sigma, St. Louis, Mo.), without serum and glucose. Cells were washed, mounted with 60% perchloric acid, scraped down, and centrifuged at 8,000 G for 5 min; PBS (20% vol/vol) and 98% deuterated water (10% vol/vol) (Sigma, St. Louis, Mo.) were added to supernatants to a total of 600 uL for NMR. For medium sample analysis, 10% vol/vol deuterated water was added to the medium before NMR analysis. NMR spectra were recorded on a Varian 500 MHz VNMRS spectrometer equipped with a Dell Optiplex 755 data system and a 5 mm Varian inverse probe. ^1H NMR spectra were obtained with a spectral width (SW) of 5.5 kHz, a 67 pulse flip angle (6 us), a 6.4 s acquisition time (AT), a 2 sec water presaturation pulse and relaxation delay (RD), and digitized using 64000 points to obtain a digital resolution of 0.172 Hz per point. ^1H-decoupled ^13C spectra were recorded at 125 MHz with a 32051.3 Hz SW, a 60 pulse flip angle (6.5 us), a 2.0 s AT, a 0.7 s RD and digitized into 130,000 points to yield a digital resolution of 0.493 Hz per point.

R3230 Ac = assay: Uptake kinetics of 14C-lactate or 14C-glucose in vivo (3-compartment model); parameters: species or system rat; details: 14C-labeled metabolite infused i.v., fitted rate constant
Experimental: Uptake kinetics of ^14C-lactate in vivo: Kinetics of ^14C-lactate or ^14C-glucose uptake were studied using a novel implantable fiber optic radiation detection probe provided by Sicel Technologies Inc., Durham, N.C. Time uptake curves from tumor, subcutaneous, and blood compartments were analyzed using a 3-compartment model from which were derived parameters related to the transfer coefficients in and out of the tumor and blood clearance (see Supplemental methods for detail). The apparatus detected beta radiation from ^14C, which is proportional to ^14 C-lactate or ^14C-glucose concentration. Probes were inserted into tumors of anesthetized rats (Isoflurane as above) and subcutaneous tissue as a control. Each probe was calibrated using ^14C-glucose solutions of known concentration (μCi/mL) immediately before the experiment. After a stabilization period of 50 min, 50 μCi of ^14C-lactate or ^14C-glucose was infused intravenously. Data were recorded in two-minute intervals over 3 h. Baseline (background, dark current values) were subtracted from each time point.
Normalization to the calibration solution was done to control for variations in probe performance and length of probe used in different tumors. The relationship between photons detected and concentration (μCi/mL) was linear, based on experiments done by the company. Data were graphed as the change in μCi/mL over time, and normalized to dose/body weight (μCi/g) to obtain a standardized uptake value (SUV).
In separate animals, blood samples (300 μL-500 μL) were taken at 0, 4, 7, 10, 15, 25, 30, 60, 100, and 160 minutes from the arterial cannula following ^14C-radioisotope infusion. Samples were centrifuged, and plasma collected and weighed. Plasma activities were measured in a liquid scintillation counter (Packard Tri-Carb 1500, Perkin Elmer Life and Analytical Sciences Inc., Boston Mass.) and isotope concentrations (μCi/g) were calculated. Blood activity data were normalized to dose/body weight. Time uptake curves from tumor, subcutaneous, and blood compartments were analyzed using a 3-compartmental model.
The equations defining tracer kinetics were the following:
dCp/dt=−(k1+k4+k0)Cp+k2Ct+k5Cs (1)
Cp, Ci, and Cs were the tracer concentration in central blood compartment, tumor cells, and subcutaneous tissue, respectively. Ct was the measured compound concentration in tumor. Vb was the vascular volume fraction. Due to the nature of the measurement, the tumor probe collected photon counts from both tumor cells and nearby vasculature. The last equation described vascular contribution to the overall photon counts in the tumor tissue. Ki was the transfer constant between each compartment. The averaged isotope concentration in plasma was used to create an empirical blood curve to be used in the model. […]

R3230 cells [2] = assay: Measurement of metabolic rates (glucose consumption) in cultured R3230 cells; assay type: cell-based, rat
Experimental: (§1) Tissue culture and measurement of metabolic rates: The R3230 rat mammary carcinoma was originally derived from a spontaneous mammary carcinoma of the Fischer 344 rat (Hilf et al, 1965; Lindberg et al, 1996). Cells were exposed to 6% or 0.5% oxygen (Vaupel et al, 1991) at 37° C., and […] in glucose- and serum-free DMEM, while dishes were placed on a slow-moving rocker. Cells were counted and media samples were collected at the beginning and end of the experiment, and analyzed for glucose and lactate content using a CMA microdialysis analyzer (CMA, Sweden).

R3230 cells [3] = assay: Survival of R3230 cells by counts of attached cells; assay type: cell-based, rat
Experimental: (F) Effect of Na-lactate concentration on cellular NAD/NADH ratio (expressed as light absorbance ratio, 260/340 nm).
as §1

R3230 cells [4] = assay: pHi measurements with BCECF-AM; assay type: cell-based, rat; details: fluorescent dye BCECF-AM
Experimental: pHi measurements: Cells were grown on glass coverslides and incubated with BCECF-AM (Invitrogen) at 5 μM for 20 min, and imaged on an inverted fluorescence microscope, with excitation at 440 and 490 nm, emission 535 nm. Ratiometric pH calibration was done in mixture ratios of buffers containing 110 mM K2HPO4 or 135 mM KH2PO4, and 20 mM NaCl, respectively. Nigericin was added at 10 μM (Franck et al, 1996) and pH expressed as ratios of grayscale values from stacks of calibration images taken from the nigericin-treated cells, imaged at 440 and 490 nm (Franck et al, 1996).

R3230 cells [5] = assay: Measurement of redox changes (NAD+/NADH optical density 260/340 nm); assay type: cell-based, rat; details: within 2 minutes after isovolumic addition
Experimental: Measurement of redox changes: Cells were trypsinized, washed, and brought to 5×10^6/mL in PBS. 1 mL of cell suspension was scanned for optical density in a cuvette at 260 nm (NAD^+) and 340 nm (NADH+H^+). Various concentrations of Na-lactate in PBS were added at 20 μL/mL.

SMILES | effect on clonogenic survival, higher concentrations of CHC (R3230 cells [1]; any ambient lactate) | effect on clonogenic survival, low concentrations of CHC (R3230 cells [1]; high ambient lactate (>5mM) versus low lactate (0-5 mM)) | effect on lactate catabolism to alanine and glutamate (MCT-1; 40 mM 13C-lactate, 24 h, glucose/serum free) | effect on lactate uptake, low lactate (MCT-1; lactate 5 mM) | effect on lactate uptake, high lactate (MCT-1; lactate 40 mM) | K1 Transfer rate into tumor (R3230 Ac; R3230 Ac tumour-bearing rats) | K2 Transfer rate out of tumor (R3230 Ac; R3230 Ac tumour-bearing rats) | K4 Transfer rate into SQ (R3230 Ac; subcutaneous tissue) | K5 Transfer rate out of SQ (R3230 Ac; subcutaneous tissue) | effect of escalated extracellular lactate on glucose consumption (R3230 cells [2]; glucopenic conditions) | inhibition of glucose consumption (R3230 cells [2]; glucose 0.2 mM, 18 hr incubation, 6% O2) | effect on survival under glucose starvation (R3230 cells [3]; lactate 2.5 mM) | Na-lactate concentration leading to decreased survival (counts of attached cells) (R3230 cells [3]; under glucose deprivation) | effect on intracellular pH (R3230 cells [4]) | effect on NAD+/NADH2+ (reductive stress) (R3230 cells [5])
N#CC(=Cc1ccc(O)cc1)C(=O)O [CHC, α-cyano-4-hydroxycinnamate] | cytotoxic, independent of ambient lactate | selectively reduced R3230 clonogenic survival at high ambient lactate | effectively inhibited catabolism of lactate to glutamate and alanine; also recorded: inhibited breakdown of lactate and conversion into alanine and glutamate | effectively inhibited lactate uptake | lactate uptake persisted |  |  |  |  |  |  |  |  |  | 
CC(O)C(=O)O (stereo not drawn) [Lactate, lactate] |  |  |  |  |  | 0.2381 | 0.06182 | 0.00144 | 0.07439 | inhibited glucose consumption in a concentration-dependent manner | 41% | rendered a survival advantage | > 2.5 mM | concentration-dependent reduction of intracellular pH | concentration-dependent drop
